Patent US3998795A, “(Acyl-D-α-amino acid-gly-gly-tyr-ala)^1 -somatostatin” (American Home Products Corporation, priority 1975, dated 1976)

Test system: growth hormone
Assay: In vivo growth hormone release inhibition in Nembutal-treated rats, plasma growth hormone by radioimmunoassay
Conditions: rats 200-250 g, Nembutal 50 mg/kg i.p.; after 5 min octadecapeptide 1000 micrograms/kg s.c.; blood sampled 15 min after administration; control 236 ± 30; p<0.01
Protocol: The in vivo activity of the octadecapeptides of this invention was established with (CH3 CO-D-Ala-Gly-Gly-L-Tyr-L-Ala)^1 -Somatostatin as a representative member of the octadecapeptides of this invention by injecting Nembutal intraperitoneally into rats weighing between 200 and 250 grams in an amount of 50 milligrams per kilogram body weight. After five minutes, the octadecapeptide was administered to the rats, subcutaneously, at a dose of 1000 micrograms per kilogram body weight. The rats blood was sampled 15 minutes after administration of the octadecapeptide and the amount of growth hormone present in the plasma was determined by radioimmunoassay. The octadecapeptide afforded a blood plasma concentration of growth hormone in the test animals of 74 ± 16 nanograms per milliliter as opposed to the concentration of growth hormone in the control animals of 236 ± 30 nanograms per milliliter, at a statistical certainty of p<0.01.

With CC(=O)N[C@H](C)C(=O)NCC(=O)NCC(=O)N[C@@H](Cc1ccc(O)cc1)C(=O)N[C@@H](C)C(=O)NCC(=O)N[C@H]1CSSC[C@@H](C(=O)O)NC(=O)[C@H](CO)NC(=O)[C@H]([C@@H](C)O)NC(=O)[C@H](Cc2ccccc2)NC(=O)[C@H]([C@@H](C)O)NC(=O)[C@H](CCCCN)NC(=O)[C@H](Cc2c[nH]c3ccccc23)NC(=O)[C@H](Cc2ccccc2)NC(=O)[C@H](Cc2ccccc2)NC(=O)[C@H](CC(N)=O)NC(=O)[C@H](CCCCN)NC1=O [N-α-Acetyl-D-alanyl-glycyl-glycyl-L-tyrosyl-L-alanyl-glycyl-L-cysteinyl-L-lysyl-L-asparaginyl-L-phenylalanyl-L-phenylalanyl-L-tryptophyl-L-lysyl-L-threonyl-L-phenylalanyl-L-threonyl-L-seryl-L-cysteine (7-18 disulfide) diacetate] the “blood plasma concentration of growth hormone” value was 74 ± 16 nanograms per milliliter.
